5 compounds from patent US11077159B2, “Compositions from halophyte plants and methods of use thereof” (KHALIFA UNIVERSITY OF SCIENCE AND TECHNOLOGY, priority 2017, dated 2021) can be followed below.

“And” between values parts separate entries of the source, which are not always exact repeats. Equal entries are not always repeated.

One experiment relates to Hyaluronic acid. As to the kind of experiment: Hyaluronic acid synthesis. The class given is cell-based. The following applies: 10^−7M.
Experiment [1] has as its system matrix metalloproteinase-1 (MMP-1) release. As to the kind of experiment: MMP-1 release by aged fibroblasts (ELISA), anti-aging. In kind it is cell-based, human. The following applies: 10^−7M. An excerpt: […] The matrix metalloproteinase-1 (MMP-1) assay using a specific ELISA kit was used to evaluate anti-aging properties. The migration/proliferation of NHEK using kinetic image analysis of the wound recovery was used to evaluate cell renewal properties. The IL-8 release on NHEK stimulated by PMA using a specific ELISA kit was used to evaluate anti-inflammatory properties.

Another experiment deals with IL-8 release of NHEK. As to the kind of experiment: IL-8 release of NHEK stimulated by PMA (ELISA), anti-inflammatory. In kind it is cell-based, human. As to conditions: 10^−9M. An excerpt: The matrix metalloproteinase-1 (MMP-1) assay using a specific ELISA kit was used to evaluate anti-aging properties. The migration/proliferation of NHEK using kinetic image analysis of the wound recovery was used to evaluate cell renewal properties. The IL-8 release on NHEK stimulated by PMA using a specific ELISA kit was used to evaluate anti-inflammatory properties.
A general note: ELISA stands for enzyme-linked immunosorbent assay.

Experiment [2] in a line: DPPH free radical scavenging (antioxidant) assay. The class given is biochemical. As to conditions: positive control, 0.3 mg/mL; ± standard error. The procedure:
Two controls were used in the DPPH assay; a negative control containing all reagents except for the test extract, and a positive control using a final concentration of 0.33 mg/mL L-ascorbic acid as antioxidant instead of test extract. Radical scavenging activity was calculated as follows: Scavenging activity (%)=[(Acontrol−Atest)/[…]]*100 Where Acontrol is the negative control (without test extract), and Atest is the absorbance with the botanical extract. All analysis were carried out in triplicate.

Experiment [3] can be described thus: Scavenging of reactive oxygen species. The following applies: control reference, concentration not given.

For `CC1=C(/C=C/C(C)=C/C=C/C(C)=C/C(=O)O)C(C)(C)CCC1` [Retinoic acid], in the experiment on Hyaluronic acid, the “Hyaluronic acid % Control” value turned out to be 241%, the “Hyaluronic acid % Stimulation” value was 141% and the “Hyaluronic acid Mean” value stood at 655.7 ng/mL. Further, the “Hyaluronic acid (ng/ml) dilution factor adjusted” value in the experiment on Hyaluronic acid (single replicate) was 677.2 ng/mL and 632.1 ng/mL and 657.9 ng/mL.
As to `C[C@@H]1C[C@H]2[C@@H]3CCC4=CC(=O)C=C[C@]4(C)[C@@]3(F)[C@@H](O)C[C@]2(C)[C@@]1(O)C(=O)CO` [Dexamethasone], the “MMP-1 % Control (P17-F)” value in experiment [1] is reported as 58%. In experiment [1] (Homo sapiens, Fibroblast), the inhibition at 0.1 µM was 42%. Moreover, the “MMP-1 (ng/ml) dilution factor adjusted” value in experiment [1] (P17-F aged fibroblasts, single replicate) is 8.7 ng/mL and 8.2 ng/mL and 8.5 ng/mL. Also, the “MMP-1 Mean” value in experiment [1] (P17-F) stood at 8.5 ng/mL.
As to `CN[C@@H]1C[C@H]2O[C@@](C)([C@@H]1OC)n1c3ccccc3c3c4c(c5c6ccccc6n2c5c31)C(=O)NC4` [Staurosporine], the “IL-8 % Stimulated control” value in the experiment on IL-8 release of NHEK came out at 54%. For the same compound, in the experiment on IL-8 release of NHEK (PMA 0.1 μg/ml), the “IL-8 Mean” value turned out to be 1685 pg/mL. Further, the “IL-8 (pg/ml) dilution factor adjusted” value in the experiment with IL-8 release of NHEK (PMA 0.1 μg/ml, non-diluted sample, single replicate) was 1579 pg/mL and 1809 pg/mL and 1668 pg/mL.
Compound `O=C1O[C@H]([C@@H](O)CO)C(O)=C1O` [L-ascorbic acid] yielded a DPPH scavenging activity in experiment [2] of 95.79±0.17%.
Take Vitamin-E: in experiment [3], the ROS scavenged turned out to be 92%.

One may read the inhibition as the share of the control response that was lost under treatment. Read a high inhibition as a response far below the control.
